The values that follow come from patent US20210106703A1, “RADIOIMMUNOCONJUGATES IN COMBINATION WITH OTHER DRUGS AS TREATMENT AGAINST NHL” (Nordic Nanovector ASA, priority 2017, published 2021).

What all share (type): cell-based, human
In assay [1] the test system is RIVA cells. Kind of assay: Real Time Glo viability screen, Betalutin with PARP or cell cycle kinase inhibitors (Examples 4, 7). Particulars: RIVA. On the procedure:
(§1) DLBCL cell lines U2932 and RIVA were maintained in RPMI 1640-GlutaMAX medium (Gibco) supplemented with 15% fetal bovine serum (Biowest) and 1% penicillin-streptomycin (Gibco) at 37° C. in a humidified atmosphere containing 5% CO2. Cells were split twice a week 1:7 and diluted 2-4 days before start of the experiment, to ensure they are in exponential growth at the beginning of the experiment.
(§2) Cells were treated in 6-well plates without shaking for 18 h with Betalutin at a final concentration of 1 μg/ml for U2932 and 0.5 μg/ml for RIVA. After treatment, PBS was added to the cells, and the cells pelleted. Cells were first resuspended in 1 ml PBS, then washed twice in PBS and finally diluted in growth medium to a final concentration of 2.5*10^6 cells/ml.
(§3) Cells density measurements were performed the day before seeding. Based on these measurements cells were seeded in 384-well plates at a density of 3000 cells per well in a culturing volume of 25 μl (resulting in start titers: 120 000 cells/ml) using a robot. For measuring viability using Real Time Glo (Promega, WI, USA), the Cell Viability Substrate and NanoLuc® Enzyme were diluted 1:500 in growth medium, and 25 μL of diluted reagents dispensed in each well by a robot. All reagents were equilibrated to 37° C. Cells were incubated with the reaction mix for 1 h at 37° C. before the first measurement of luminescence. Measurements were repeated as often as required within 72 h after adding the reagents. A Tecan SPARK 10M plate reader (Tecan, SUI) was used to measure luminescence, with the integration time set to 1 sec.
(§4) The screen was performed in 384-well plate with selected PARP inhibitors (stock solutions 10 mM in DMSO) acquired from SelleckChem (Selleckchem, TX, USA). To include no-drug controls, the drug panel (Table 6) was divided on two plates. Due to previous observations of cells growing poorly in wells located at the edges of the plates, the two outer most rows and columns were not used. As previously mentioned three different drug concentrations were used in the screen, 10 nM and 1 μM for U2932 and 10 and 100 nM for RIVA.
(§5) Candidate hits were identified using the Bliss Independence test for synergy. The effect of each drug alone at each concentration was calculated as the fraction of dead cells as compared to control cells Fa=(1−(RLUdrug/avgRLUcontrol), a similar calculation was performed for the effect of Betalutin alone Fb=(1−(avgRLUBetalutin/avgRLUcontrol). Through the following equation we found the expected additive effect of the combination of drug+Betalutin: Expected effect (E)Fab=(Fa+Fb−Fa*Fb). We subtracted this expected effect from the measured effect (M)Fab=(1−(RLUDrug+Betalutin/avgRLUcontrol) to get a value (Diff)Fab representing how the measured effect differed from the expected additive effect of the combination. This value was normalized to the survival fraction of drug alone: (Diff)Fab#=(Diff)Fab/(1−Fa). Furthermore, to get a measure of how big the well-to-well variation was, we calculated the standard deviation for the effect of Betalutin alone in the 48 control wells on each plate: (STDEV)Fb=(RLUBetalutin/RLUcontrol)−(averageRLUBetalutin/averageRLUcontrol). Drugs with a value (Diff)Fab#two times higher than the standard deviation of Betalutin treated controls, (STDEV)Fb, were scored as hits.
as §3, with “Measurements were repeated as often as required within 72 h after adding the reagents. A Tecan SPARK 10M plate reader (Tecan, SUI) was used to measure luminescence, with the integration time set to 1 sec.” left out

For assay [2], the system named is U-2932 cells. Kind of assay: Real Time Glo viability screen and validation, Betalutin with PARP or cell cycle kinase inhibitors (Examples 4, 7). On the procedure: as §1, §2, §3, §4, §5
as §3, with “Measurements were repeated as often as required within 72 h after adding the reagents. A Tecan SPARK 10M plate reader (Tecan, SUI) was used to measure luminescence, with the integration time set to 1 sec.” left out

Assay [3] has as its system DOHH2 cells. Kind of assay: Cell cycle analysis (PI, Muse flow cytometer). On the procedure:
(§6) Cells were harvested at day 0, 2 h, 18 h, 1 d, 2 d, 3 d, of RIT then fixed in 70% ethanol at −20° C. for 3 hours and stained with Cell Cycle kit (with PI) reagent from Merck Millipore in the dark for 30 min at room temperature before analysis using a Muse® flow cytometer. The percentage of cells in G0/G1, S and G2/M phases was then calculated (mean of three experiments in triplicate).
(§7) At different times after start of incubation, proteins were extracted to measure the CDK1 phosphorylation levels, in parallel, proliferation was determined and at 18 h and 24 h after start of incubation, the percentage of cells in G2/M was assessed (experiments were performed three time except the cell cycle analysis).
(§8) Cells were harvested at 0 h, 2 h, 18 h, 1 d, 2 d, 3 d, and fixed in 70% ethanol at −20° C. for at least 3 h. After staining with the Muse® Cell Cycle Assay Kit (Merck Millipore, Molsheim, France) using propidium iodide in the dark at room temperature for 30 min, cell cycle distribution was analyzed using a Muse® flow cytometer. The percentage of cells in the G0/G1, S and G2/M was calculated (mean of three experiments in triplicate) and the effect of WEE-1 and MYT-1 kinase inhibitors on the cell cycle was assessed.
Background: A flow cytometer gives signals particle by particle.

In assay [4] the test system is Rec-1 cells. Kind of assay: Cell cycle analysis (PI, Muse flow cytometer). On the procedure:
as §6, §7, §8

Assay [5] concerns Ramos cells. Kind of assay: Cell cycle analysis (PI, Muse flow cytometer). On the procedure:
as §6, §7, §8

As a reminder, the inhibition is the drop in the measured response relative to a control, in per cent. Turning to `Nc1nc(Nc2ccc(S(N)(=O)=O)cc2)nn1C(=O)c1c(F)cccc1F` [JNJ-7706621], the “Growth inhibitory effect, drug alone” value is “no growth inhibitory effect” in assay [1] (drug 100 nM) and “no growth inhibitory effect” in assay [2] (U-2932, drug 10 nM). Further, the inhibition at 1 µM in assay [2] (Homo sapiens, U2932, 120 h, U-2932, drug 1 μM, five days into treatment, read-out: Growth inhibition, drug alone) was approximately 40%. Moreover, the inhibition at 0.64 µM in assay [2] (Homo sapiens, U2932, U-2932, drug 640 nM, read-out: Growth inhibition, drug with Betalutin pre-treatment) was approximately 80%. Besides, the “Combined growth inhibition with Betalutin pre-treatment” value in assay [2] (U-2932, drug 1 μM + Betalutin) is on record as “more than 60%”. In addition, the “Synergy by combination index” value in assay [2] (U-2932, drug 80-1280 nM with 0.5, 1 or 2 μg/ml Betalutin, day 5) was “Synergy was found for all tested combinations”. Besides, the “Synergy by combination index, confirmation experiments” value in assay [2] (U-2932, drug 100-5000 nM with Betalutin 0.5-5 μg/ml, day 5) was “observed for all but two combinations”. Also, in assay [2] (U-2932, highest tested dose 1280 nM), the “Growth impairment, drug alone” value is reported as 30%. In assay [2] (U-2932, significant = more than twice the SD of Betalutin alone), the “BLISS analysis, combination with Betalutin versus expected additive effect” value is “significantly greater than the expected additive effect”.

`C=CCn1c(=O)c2cnc(Nc3ccc(N4CCN(C)CC4)cc3)nc2n1-c1cccc(C(C)(C)O)n1` [MK-1775]: the “Proportion of cells in G2/M, inhibitor combined with ^177Lu-lilotomab” value is “reduction of the fraction of G2/M cells” in assay [3] (DOHH2, 1 μM inhibitor + ^177Lu-lilotomab, versus ^177Lu-lilotomab alone or untreated); “reduction of the fraction of G2/M cells” in assay [4] (Rec-1, 1 μM inhibitor + ^177Lu-lilotomab, versus ^177Lu-lilotomab alone or untreated); “reduction of the fraction of G2/M cells” in assay [5] (1 μM inhibitor + ^177Lu-lilotomab, versus ^177Lu-lilotomab alone or untreated).

B1: Lutetium-177 [^177Lu]-lilotomab satetraxetan (conjugate, chains of the INN, looked up)
VH: EIQLQQSGPELVKPGASVKVSCKASGYSFTDYNMYWVKQSHGKSLEWIGYIDPYNGDTTYNQKFKGKATLTVDKSSSTAFIHLNSLTSEDSAVYYCARSPYGHYAMDYWGQGTSVTVSS
VL: DIVMTQSHKLLSTSVGDRVSITCKASQDVSTAVDWYQQKPGQSPKLLINWASTRHTGVPDRFTGSGSGTDYTLTISSMQAEDLALYYCRQHYSTPFTFGSGTKLEIK
modifications: 177Lu satetraxetan chelator conjugate
On to B1, for which the “Proliferation relative to non-treated cells” value in assay [1] (0.5 μg/ml [600 MBq/mg], days 4-6) is “more than 40%”; in assay [2] (U-2932, 1 μg/ml [600 MBq/mg]), “more than 80%”. For the same molecule, the “Inhibition of proliferation capacity, single treatment” value is on record as “about 50%” in assay [1] (Betalutin 0.5 μg/ml, days 5 and 6); “less than 10%” in assay [2] (U-2932, Betalutin 1 μg/ml, days 5 and 6). The “Proportion of cells showing a G2/M cell cycle arrest” value in assay [3] (DOHH2, 6 MBq/mL, at 24 h) is 45±11%; in assay [4] (Rec-1, 6 MBq/mL, at 24 h), 44±11%; in assay [5] (6 MBq/mL, at 24 h), 64±16%. For the same molecule, the “Proliferation potential compared to untreated cells” value in assay [2] (U-2932, validation screen, highest Betalutin dose (2 μg/ml)) is “about 70%”.
